The source of these data is ChEMBL document CHEMBL1201862, “PubChem BioAssay data set” (2004).

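All cell lines were grown in 96-well plates and treated with compound for 48 hours. GI50 = concentration required for 50% inhibition of growth.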 Activity calls are given as the source filed them. Cut-off read from the data, not from the text of the source: active = GI50 up to about 1.1 µM and inactive = higher.

Test systems include M14; SK-MEL-2; HOP-62; OVCAR-3; SK-MEL-28; K562; SNB-19; U-251; SW-620; A549; NCI-H460; ACHN; MOLT-4; IGROV-1; RPMI-8226; LOX IMVI; OVCAR-4.
What all share (test): growth of human tumour cells (NCI), 48 h

With `CNS(=O)(=O)NNS(=O)(=O)c1ccccc1`, the GI50 with M14, in the experiment on SK-MEL-2, in the experiment on HOP-62, in the experiment on OVCAR-3, in the experiment with SK-MEL-28 and in the experiment with K562 was > 100 µM (inactive) throughout. The GI50 with SNB-19, in the experiment on U-251, with SW-620, in the experiment with A549, with NCI-H460 and in the experiment with ACHN was > 100 µM (inactive) each time. Further, the GI50 in the experiment with MOLT-4, with IGROV-1, in the experiment with RPMI-8226 and with LOX IMVI was > 100 µM (inactive) throughout.

In the case of `Cc1nc2c(s/c(=N\N)n2-c2ccccc2)c(=O)n1C`, the GI50 with M14, with SK-MEL-2, in the experiment with OVCAR-4, in the experiment on SK-MEL-28, in the experiment on K562 and in the experiment on SNB-19 was > 100 µM (inactive) throughout. Further, the GI50 in the experiment with U-251, in the experiment with SW-620, in the experiment with A549, with NCI-H460, in the experiment on ACHN and with MOLT-4 was > 100 µM (inactive) each time. In addition, the GI50 with IGROV-1, in the experiment with RPMI-8226 and in the experiment with LOX IMVI was > 100 µM (inactive) each time.

Regarding `O=C(O)CNS(=O)(=O)c1ccc(NC(=O)c2cccc([N+](=O)[O-])c2)cc1`, the GI50 in the experiment on M14, with SK-MEL-2, in the experiment on OVCAR-4, in the experiment with OVCAR-3, in the experiment with SK-MEL-28 and in the experiment with K562 was > 100 µM (inactive) each time. The GI50 in the experiment on SNB-19, in the experiment with U-251, with SW-620, in the experiment on A549, in the experiment on NCI-H460 and in the experiment with ACHN was > 100 µM (inactive) throughout. Besides, the GI50 in the experiment on MOLT-4, in the experiment with IGROV-1, with RPMI-8226 and in the experiment on LOX IMVI was > 100 µM (inactive) throughout.

For the molecule `O=C(OCCOCCOC(=O)c1c[nH]cc1-c1ccccc1)c1c[nH]cc1-c1ccccc1`, the GI50 in the experiment with M14 was 14.8 µM (inactive); in the experiment with HOP-62 it was 17.3 µM (inactive); in the experiment on OVCAR-4, 18.3 µM (inactive); in the experiment with OVCAR-3, 22.1 µM (inactive); in the experiment with K562 it was 28.9 µM (inactive); in the experiment with SNB-19 it was 24.3 µM (inactive). For the same molecule, the GI50 was 17.9 µM (inactive) in the experiment with U-251; 28.4 µM (inactive) in the experiment with SW-620; 22.2 µM (inactive) in the experiment with A549; 21.2 µM (inactive) with NCI-H460; 17.9 µM (inactive) with MOLT-4; 21.3 µM (inactive) in the experiment with IGROV-1. The GI50 with RPMI-8226 is 15 µM (inactive); with LOX IMVI, 16.4 µM (inactive).

For `COC1OC(COS(=O)(=O)c2ccc(C)cc2)C(O)C(OS(=O)(=O)c2ccc(C)cc2)C1OS(=O)(=O)c1ccc(C)cc1` (configuration not stated), the GI50 with M14, with SK-MEL-2, with HOP-62, in the experiment on OVCAR-4, in the experiment on OVCAR-3 and in the experiment with SK-MEL-28 was > 100 µM (inactive) throughout. For the same molecule, the GI50 with K562 is > 100 µM (inactive); in the experiment on SNB-19, > 100 µM (inactive); in the experiment on U-251, > 100 µM (inactive); in the experiment on SW-620 it was 16 µM (inactive); in the experiment with A549 it was > 100 µM (inactive); in the experiment with NCI-H460, > 100 µM (inactive). In addition, the GI50 in the experiment on ACHN, with MOLT-4, with IGROV-1 and with RPMI-8226 was > 100 µM (inactive) each time.

With `C=C1C(C)C2C(Cc3ccccc3)NC(=O)C23OC(=O)/C=C\CC(=O)CCC(C)C/C=C/C3C1O` (configuration not stated), the GI50 with SK-MEL-2 is 1.58 µM (inactive); in the experiment on HOP-62, 2 µM (inactive); in the experiment on OVCAR-4 it was 2.31 µM (inactive); in the experiment with OVCAR-3, 1.82 µM (inactive); with SK-MEL-28, 1.39 µM (inactive); in the experiment with K562, 0.757 µM (active). Besides, the GI50 with SNB-19 is 2.6 µM (inactive); in the experiment on U-251, 2.54 µM (inactive); in the experiment on SW-620, 1.36 µM (inactive); in the experiment on A549, 4.41 µM (inactive); in the experiment on NCI-H460 it was 5.85 µM (inactive); with MOLT-4, 0.91 µM (active). Also, the GI50 with IGROV-1 was 3.42 µM (inactive); with LOX IMVI, 0.875 µM (active).

Turning to `CC1(C(=O)NCCN(CCNC(=O)C2(C)CC3(C)CC(C)(C2)C(=O)NC3=O)CCNC(=O)C2(C)CC3(C)CC(C)(C2)C(=O)NC3=O)CC2(C)CC(C)(C1)C(=O)NC2=O` (configuration not stated), the GI50 with M14, in the experiment on SK-MEL-2, in the experiment on HOP-62, in the experiment on OVCAR-4, in the experiment with OVCAR-3 and in the experiment with SK-MEL-28 was > 100 µM (inactive) in each case. In addition, the GI50 with K562, with SNB-19, in the experiment on U-251, with SW-620, with A549 and in the experiment on NCI-H460 was > 100 µM (inactive) in each case. The GI50 with ACHN, in the experiment with MOLT-4, in the experiment on IGROV-1 and in the experiment on RPMI-8226 was > 100 µM (inactive) each time.

With `Cc1nn(C(=O)CC(=O)Nc2ccc(Cl)cc2)c(C)c1/N=N/c1ccccc1C(=O)O`, the GI50 in the experiment with M14, in the experiment on SK-MEL-2, with HOP-62, in the experiment with OVCAR-4, in the experiment with OVCAR-3 and in the experiment on SK-MEL-28 was > 100 µM (inactive) in each case. Also, the GI50 in the experiment with K562, in the experiment with SNB-19, in the experiment with U-251, in the experiment with SW-620, in the experiment with A549 and in the experiment with NCI-H460 was > 100 µM (inactive) in each case. For the same molecule, the GI50 in the experiment with MOLT-4, in the experiment with IGROV-1, with RPMI-8226 and in the experiment with LOX IMVI was > 100 µM (inactive) throughout.

As to `Nc1nc(N)c(-c2ccc(Cl)cc2)c(CCC(=O)Nc2cccc(C(F)(F)F)c2)n1`, the GI50 with M14, in the experiment on SK-MEL-2, with HOP-62, with OVCAR-4, in the experiment on OVCAR-3 and in the experiment on SK-MEL-28 was > 100 µM (inactive) in each case. Also, the GI50 in the experiment on K562, in the experiment on SNB-19, in the experiment with U-251, in the experiment on SW-620, with A549 and with NCI-H460 was > 100 µM (inactive) throughout. In addition, the GI50 in the experiment with ACHN, with MOLT-4, with IGROV-1 and with LOX IMVI was > 100 µM (inactive) each time.

Turning to `CCO/C([O-])=C(\C(=O)c1ccccc1)[n+]1c(C)n(C)c2ccccc21`, the GI50 in the experiment on M14, with SK-MEL-2, with HOP-62, in the experiment on OVCAR-4, in the experiment on OVCAR-3 and with SK-MEL-28 was > 100 µM (inactive) each time. The GI50 with K562, in the experiment on SNB-19, in the experiment on U-251, with SW-620, in the experiment with A549 and in the experiment on NCI-H460 was > 100 µM (inactive) each time. Further, the GI50 with MOLT-4, in the experiment on IGROV-1, in the experiment on RPMI-8226 and in the experiment on LOX IMVI was > 100 µM (inactive) each time.

`COC(=O)/C(=N\NC(C)(C)C)C(C(=O)OC)C(=O)C(=O)Nc1cc(Cl)ccc1Cl` (configuration not stated): the GI50 in the experiment with M14, in the experiment on SK-MEL-2, with HOP-62, in the experiment on OVCAR-4, in the experiment on OVCAR-3 and in the experiment on SK-MEL-28 was > 100 µM (inactive) each time. In addition, the GI50 in the experiment on K562, in the experiment with SNB-19, with U-251, in the experiment with SW-620, in the experiment on A549 and in the experiment on NCI-H460 was > 100 µM (inactive) throughout. Further, the GI50 in the experiment with ACHN, in the experiment with MOLT-4, in the experiment on IGROV-1 and in the experiment on LOX IMVI was > 100 µM (inactive) throughout.

Take `C1C[N+]23CCC[N+]2(C1)CCC3` (configuration not stated): the GI50 in the experiment with M14, with SK-MEL-2, in the experiment with HOP-62, in the experiment on OVCAR-4, in the experiment on OVCAR-3 and in the experiment with SK-MEL-28 was > 100 µM (inactive) in each case. For the same molecule, the GI50 with K562, in the experiment on SNB-19, with U-251, with SW-620, in the experiment with A549 and in the experiment with NCI-H460 was > 100 µM (inactive) in each case. Besides, the GI50 in the experiment on ACHN, in the experiment on MOLT-4, in the experiment with IGROV-1 and with LOX IMVI was > 100 µM (inactive) throughout.
